The target in assay [1] is DGAT2 in primary human hepatocytes (Homo sapiens (Human), UniProt Q96PD7). Put plainly: IC50 for DGAT2 inhibitors in human hepatocytes, [14C]-glycerol incorporation into lipids. Type of assay: cell-based. Particulars: average; cryopreserved human hepatocytes; selective DGAT1 inhibitor 3 μM in all wells; 3 hour incubation; read-out: IC50 in primary human hepatocytes. The procedure: For evaluation of the effects of DGAT2 inhibitors in a cell-based setting, cryopreserved human hepatocytes (Lot QOC and NON, Celsis, Chicago, Ill.) were thawed and plated onto type I collagen-coated plates according to the manufacturer's instructions. After 24 hours overnight recovery period, the cells were overlayed with media containing 250 μg/ml Matrigel (BD Biosciences, San Jose, Calif.). The following day, media was aspirated and replaced with serum-free Williams Media E (Life Technologies, Grand Island, N.Y.) containing 400 μM sodium dodecanoate (Sigma-Aldrich, St. Louis, Mo.). Forty minutes later, DGAT2 inhibitors (prepared as 100× stocks in 25% DMSO, 75% Williams' Media E) were added to the desired final concentration. […] After a 20 minute preincubation, 0.2 μCi [1,3-^14C]-glycerol glycerol (American Radio Chemicals, St. Louis, Mo.) was added to each well and mixed by gentle pipetting prior to a 3 hour incubation. At this point, media was aspirated and the cells were lysed in isopropyl alcohol: tetrahydrofuran (9:1) prior to centrifugation at 3000 rpm for 5 minutes. Radiolabeled lipids were resolved using a 2-solvent system by thin layer chromatography using standard technique (solvent 1 contained ethyl acetate:isopropyl alcohol:chloroform:methanol:0.25% potassium chloride in water (100:100:100:40.2:36.1, v/v/v/v) and solvent 2 contained hexane: diethyl ether: acetic acid (70:27:3, v/v/v)). After separation, radiolabeled lipids were visualized using a Molecular Dynamics' PhosphorImager system. The half maximal inhibitory concentrations (IC50 values) were determined using GraphPad Prism (GraphPad Software, Inc., La Jolla, Calif.).
DGAT2 in primary human hepatocytes, sequence (Q96PD7 whole entry): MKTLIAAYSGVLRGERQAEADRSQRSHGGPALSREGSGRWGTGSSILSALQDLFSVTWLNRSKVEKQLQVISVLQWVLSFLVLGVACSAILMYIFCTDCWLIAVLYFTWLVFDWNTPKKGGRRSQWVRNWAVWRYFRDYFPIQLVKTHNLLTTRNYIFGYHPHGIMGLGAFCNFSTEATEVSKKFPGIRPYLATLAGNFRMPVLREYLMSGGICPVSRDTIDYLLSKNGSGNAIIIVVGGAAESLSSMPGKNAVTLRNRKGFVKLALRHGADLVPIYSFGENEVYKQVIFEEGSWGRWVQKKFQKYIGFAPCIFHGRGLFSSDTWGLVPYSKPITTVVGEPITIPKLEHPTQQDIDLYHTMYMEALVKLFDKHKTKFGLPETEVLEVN
Table 4 below provides IC50 values for the Examples in accordance with the above-described assay. Results were reported as average IC50 values, low and high IC50 range (95% confidence interval).

Assay [2] addresses hDGAT2 (Homo sapiens (Human), UniProt Q96PD7). Put plainly: In vitro DGAT2 assay, hDGAT2 membrane fraction, [14C]decanoyl-CoA scintillation readout. It counts as biochemical. Particulars: read-out: IC50 for inhibition of DGAT2. The procedure:
Recombinant baculovirus for the FLAG-tagged hDGAT2 was generated in SF9 insect cells using Bac-to-Bac baculovirus expression system (Invitrogen) according to the manufacturer's protocol. For the expression of hDGAT2, SF9 cells (20 L) grown in Sf90011 media were infected with hDGAT2 baculovirus at a multiplicity of infection of 1 in a Wave Bioreactor System 20/50P wave bag (GE Healthcare). After 40 hours of infection, the cells were then harvested by centrifugation at 5,000×g. The cell pellets were washed by resuspending in phosphate buffered saline (PBS) and collected by centrifugation at 5,000×g. The cell paste was flash frozen in liquid N2 and stored at −80° C. until needed. All operations below were at 4° C. unless otherwise noted. The cells were resuspended in lysis buffer (50 mM Tris-HCl, pH 8.0, 250 mM sucrose) including 1 mM ethylenediaminetetraacetic acid (EDTA) and the complete protease inhibitor cocktail (Roche Diagnostics) at a ratio of 3 ml buffer per 1 g cell paste. The cells were lysed by dounce homogenizer. The cell debris was removed by centrifugation at 1,000×g for 20 min, and the supernatant was centrifuged at 100,000×g for 1 hour. The resulting pellet was rinsed three times by filling ultracentrifuge tubes to the top with ice cold PBS before decanting. The washed pellet was resuspended with gentle stirring for 1 hour in lysis buffer containing 8 mM 3-[(3-cholamidopropyl)dimethylammonio]-1-propanesulfonate (CHAPS) at a ratio of 1 mL buffer per 1 g of original cell paste and centrifuged again at 100,000×g for 1 hour. The resulting supernatant was aliquotted, flash frozen in liquid N2, and stored at −80° C. until use.
For determination of IC50 values, the reactions were carried out in 384-well white Polyplates (Perkin Elmer) in a total volume of 20 μL. To […] compounds dissolved in 100% DMSO and spotted at the bottom of each well, 5 μL of 0.04% bovine serum albumin (BSA) (fatty acid free, Sigma Aldrich) was added and the mixture was incubated at room temperature for 20 minutes. To this mixture, 10 μL of hDGAT2 membrane fraction (0.01 mg/mL) diluted in 100 mM Hepes-NaOH, pH 7.4, 20 mM MgCl2 containing 200 nM methyl arachidonyl fluorophosphonate (Cayman Chemical; dried from ethyl acetate stock solution under argon gas and dissolved in DMSO as 5 mM stock) was added. After this mixture was preincubated at room temperature for 2 hours, DGAT2 reactions were initiated by the addition of 4 μL of substrates containing 30 μM [1-^14C]decanoyl-CoA (custom-synthesized by Perkin Elmer, 50 mCi/mmol) and 125 μM 1,2-didecanoyl-sn-glycerol (Avanti Polar Lipids) dissolved in 12.5% acetone. The reaction mixtures were incubated at room temperature for 40 min and the reactions were stopped by addition of 5 μL of 1% H3PO4. After the addition of 45 μL MicroScint-E (Perkin-Elmer), plates were sealed with Top Seal-A covers (Perkin-Elmer) and phase partitioning of substrates and products was achieved using a HT-91100 microplate orbital shaker (Big Bear Automation, Santa Clara, Calif.). Plates were centrifuged at 2,000×g for 1 min in an Allegra 6R Centrifuge (Beckman Coulter) and then were sealed again with fresh covers before reading in a 1450 Microbeta Wallac Trilux Scintillation Counter (Perkin Elmer). DGAT2 activity was measured by quantifying the generated product [^14C]tridecanoylglycerol in the upper organic phase.
Inhibitors were tested at eleven different concentrations to generate IC50 values for each compound.

The mark [3] stands for this setting: geometric mean, FLAG-hDGAT2 membrane fraction, 2 h preincubation.

Like-named read-outs stand apart in the source and are kept apart here.

hDGAT2, sequence (Q96PD7 whole entry): as above

Take `CCOc1ccccc1O[C@@H]1CCCN(c2ncc(C(=O)NCc3ccc(C(C)C(=O)O)cc3)cn2)C1` (single isomer, unassigned) [Example 15]: the half-maximal inhibitory concentration (IC50) in assay [1] was 78.8 nM; in assay [2] (setting [3]), 2.4 nM.
For `CCOc1ccccc1O[C@@H]1CCCN(c2ncc(C(=O)NCc3cccc(C(=O)O)c3)cn2)C1` [Example 1, (R)-3-((2-(3-(2-ethoxyphenoxy)piperidin-1-yl)pyrimidine-5-carboxamido)methyl)benzoic acid], in that order: 11.2 nM and 91.6 nM.
Consider `CCOc1ccccc1O[C@@H]1CCCN(c2ncc(C(=O)NCc3cc(OC)cc(C(=O)O)c3)cn2)C1` [Example 2, (R)-3-((2-(3-(2-ethoxyphenoxy)piperidin-1-yl)pyrimidine-5-carboxamido)methyl)-5-methoxybenzoic acid], for which the IC50 in assay [1] worked out at 11.5 nM; in assay [2] (setting [3]), 123 nM.
`CCOc1ccccc1O[C@@H]1CCCN(c2ncc(C(=O)N[C@H](C)c3cccc(C(=O)O)c3)cn2)C1` [Example 3, 3-((R)-1-(2-((R)-3-(2-ethoxyphenoxy)piperidin-1-yl)pyrimidine-5-carboxamido)ethyl)benzoic acid]: the IC50 worked out at 29.2 nM in assay [1] and 88.4 nM in assay [2] (setting [3]).
In the case of `CCNC(=O)c1cnc(N2CCC[C@@H](Oc3ccccc3OCC)C2)nc1` [Example 4, (R)-2-(3-(2-ethoxyphenoxy)piperidin-1-yl)-N-ethylpyrimidine-5-carboxamide], the values for the IC50 in assay [1] and in assay [2] (setting [3]) were 6.6 nM and 35 nM, respectively.
The matching figures for `CCOc1ccccc1O[C@@H]1CCCN(c2ncc(C(=O)N[C@H]3CCC[C@H]3C(=O)O)cc2F)C1` [Example 5, (1R,2S)-2-(6-((R)-3-(2-ethoxyphenoxy)piperidin-1-yl)-5-fluoronicotinamido)cyclopentane-1-carboxylic acid]: 8.4 nM and 66.6 nM.
On to `CCOc1ccccc1O[C@@H]1CCCN(c2ncc(C(=O)N[C@H]3CCC[C@H]3C(=O)O)cn2)C1` [Example 6, (1R,2S)-2-(2-((R)-3-(2-ethoxyphenoxy)piperidin-1-yl)pyrimidine-5-carboxamido)cyclopentane-1-carboxylic acid], for which the values for the half-maximal inhibitory concentration (IC50) in assay [1] and in assay [2] (setting [3]) were 57.8 nM and 222 nM, respectively.
Regarding `CCOc1ccccc1O[C@@H]1CCCN(c2ccc(C(=O)NCc3cccc(C(=O)O)c3)cn2)C1` [Example 7, (R)-3-((6-(3-(2-ethoxyphenoxy)piperidin-1-yl)nicotinamido)methyl)benzoic acid], the IC50 was 19.2 nM in assay [1] and 149 nM in assay [2] (setting [3]).
For `CCOc1ccccc1O[C@@H]1CCCN(c2ncc(C(=O)NCc3ccnc(C(=O)O)c3)cc2F)C1` [Example 8, (R)-4-((6-(3-(2-ethoxyphenoxy)piperidin-1-yl)-5-fluoronicotinamido)methyl)picolinic acid], in that order: 51.7 nM and 9.7 nM.
The matching figures for `CCOc1ccccc1O[C@@H]1CCCN(c2ncc(C(=O)NCc3cc(C(=O)O)ccc3C)cn2)C1` [Example 9, (R)-3-((2-(3-(2-ethoxyphenoxy)piperidin-1-yl)pyrimidine-5-carboxamido)methyl)-4-methylbenzoic acid]: 57 nM and 38.1 nM.
With `CCOc1ccccc1O[C@@H]1CCCN(c2ncc(C(=O)NCc3cc(C(=O)O)ccc3F)cn2)C1` [Example 10, (R)-3-((2-(3-(2-ethoxyphenoxy)piperidin-1-yl)pyrimidine-5-carboxamido)methyl)-4-fluorobenzoic acid], the IC50 in assay [1] worked out at 10.4 nM; in assay [2] (setting [3]), 87.3 nM.
The matching figures for `CCOc1ccccc1O[C@@H]1CCCN(c2ncc(C(=O)NCc3cc(C(=O)O)ccc3OC)cn2)C1` [Example 11, (R)-3-((2-(3-(2-ethoxyphenoxy)piperidin-1-yl)pyrimidine-5-carboxamido)methyl)-4-methoxybenzoic acid]: 6.8 nM and 122 nM.
For `CCOc1ccccc1O[C@@H]1CCCN(c2ncc(C(=O)NCc3cc(C(=O)O)cnc3C)cn2)C1` [Example 12, (R)-5-((2-(3-(2-ethoxyphenoxy)piperidin-1-yl)pyrimidine-5-carboxamido)methyl)-6-methylnicotinic acid], in that order: 67.5 nM and 62.3 nM.
For the compound `CCOc1ccccc1O[C@@H]1CCCN(c2ncc(C(=O)NCc3ccc(C(=O)O)cc3C)cn2)C1` [Example 13, (R)-4-((2-(3-(2-ethoxyphenoxy)piperidin-1-yl)pyrimidine-5-carboxamido)methyl)-3-methylbenzoic acid], the half-inhibitory concentration (IC50) stood at 20.7 nM in assay [1] and 45.2 nM in assay [2] (setting [3]).
With `CCOc1ccccc1O[C@@H]1CCCN(c2ncc(C(=O)NCc3cc(C)cc(C(=O)O)c3)cn2)C1` [Example 16, (R)-3-((2-(3-(2-ethoxyphenoxy)piperidin-1-yl)pyrimidine-5-carboxamido)methyl)-5-methylbenzoic acid], the IC50 in assay [1] came out at 45 nM; in assay [2] (setting [3]), 47.7 nM.
For `CCNC(=O)c1cnc(N2CCC[C@@H](Oc3ccc(C#N)cc3OCC)C2)nc1` [Example 17, (R)-2-(3-(4-cyano-2-ethoxyphenoxy)piperidin-1-yl)-N-ethylpyrimidine-5-carboxamide], in that order: 19.8 nM and 182 nM.
On to `CCOc1ccccc1O[C@@H]1CCCN(c2ncc(C(=O)NCc3ccc(C(=O)O)cc3)cn2)C1` [Example 18.1, (R)-4-((2-(3-(2-ethoxyphenoxy)piperidin-1-yl)pyrimidine-5-carboxamido)methyl)benzoic acid], for which the half-maximal inhibitory concentration (IC50) was determined as 116 nM in assay [1] and 165 nM in assay [2] (setting [3]).
As for `CCOc1ccccc1O[C@@H]1CCCN(c2ncc(C(=O)N3CCCCC3)cn2)C1` [Example 20.11, (R)-(2-(3-(2-ethoxyphenoxy)piperidin-1-yl)pyrimidin-5-yl)(piperidin-1-yl)methanone], in assay [2], the IC50 amounted to 15.7 nM.
Take `CCOc1ccccc1O[C@@H]1CCCN(c2ncc(C(=O)N[C@H]3CCc4ccccc43)cn2)C1` [Example 21.1, N-((S)-2,3-dihydro-1H-inden-1-yl)-2-((R)-3-(2-ethoxyphenoxy)piperidin-1-yl)pyrimidine-5-carboxamide]: the IC50 in assay [2] (setting [3]) amounted to 1.5 nM.
Same read-out and setting: next, `CCOc1ccccc1O[C@@H]1CCCN(c2ncc(C(=O)N3CC(Oc4ccccc4)C3)cn2)C1` [Example 21.2, (R)-(2-(3-(2-ethoxyphenoxy)piperidin-1-yl)pyrimidin-5-yl)(3-phenoxyazetidin-1-yl)methanone]: 0.6 nM.

As usually defined, the IC50 is the concentration needed to halve the response being measured.

The values are drawn from patent US9789110B2, “Diacylglycerol acyltransferase 2 inhibitors” (PFIZER INC., priority 2014, dated 2017).
